# From patent US9833423B2 (KOREA RESEARCH INSTITUTE OF CHEMICAL TECHNOLOGY, priority 2011, dated 2017)
# Tests used:
# in vitro = conditions: human
Compound,CC50 (in vitro; CC50) [µg/mL],melting point [°C],CC50 (in vitro; Picorna-virus CC50) [µg/mL]
"CCOC(=O)Cc1cc(OC)c(OC(C)=O)c(C2(OC(C)=O)C(=O)c3ccccc3C2=O)c1 [Example 1, Ethyl 2-(4-acetoxy-3-(2-acetoxy-1,3-dioxo-2,3-dihydro-1H-inden-2-yl)-5-methoxyphenyl)acetate]",> 100,102 to 107,–
"CC(=O)Oc1c(C2(OC(C)=O)C(=O)c3ccccc3C2=O)ccc(Cl)c1Cl [Example 4, 6-(2-Acetoxy-1,3-dioxo-2,3-dihydro-1H-inden-2-yl)-2,3-dichlorophenyl acetate]",50.4,129 to 136,–
"CC(=O)Oc1c(Cl)cc(Cl)cc1C1(OC(C)=O)C(=O)c2ccccc2C1=O [Example 5, 2-(2-Acetoxy-1,3-dioxo-2,3-dihydro-1H-inden-2-yl)-4,6-dichlorophenyl acetate]",26,178 to 180,–
"COc1ccc(OC(C)=O)c(C2(OC(C)=O)C(=O)c3ccccc3C2=O)c1 [Example 7, 2-(2-Acetoxy-1,3-dioxo-2,3-dihydro-1H-inden-2-yl)-4-methoxyphenyl acetate]",> 100,184 to 186,–
"CC(=O)Oc1cc(-c2ccccc2)ccc1C1(OC(C)=O)C(=O)c2ccccc2C1=O [Example 8, 4-(2-Acetoxy-1,3-dioxo-2,3-dihydro-1H-inden-2-yl)biphenyl-3-yl acetate]",7.91,165 to 167,–
"CC(=O)Oc1ccc([N+](=O)[O-])cc1C1(OC(C)=O)C(=O)c2ccccc2C1=O [Example 9, 2-(2-Acetoxy-1,3-dioxo-2,3-dihydro-1H-inden-2-yl)-4-nitrophenyl acetate]",> 100,163 to 167,–
"CC(=O)Oc1ccc(-c2ccccc2)cc1C1(OC(C)=O)C(=O)c2ccccc2C1=O [Example 10, 3-(2-Acetoxy-1,3-dioxo-2,3-dihydro-1H-inden-2-yl)biphenyl-4-yl acetate]",7.85,196 to 198,–
"CCCc1ccc(OC(C)=O)c(C2(OC(C)=O)C(=O)c3ccccc3C2=O)c1 [Example 11, 2-(2-Acetoxy-1,3-dioxo-2,3-dihydro-1H-inden-2-yl)-4-propylphenyl acetate]",8.42,108 to 111,–
"CCc1ccc(OC(C)=O)c(C2(OC(C)=O)C(=O)c3ccccc3C2=O)c1 [Example 12, 2-(2-Acetoxy-1,3-dioxo-2,3-dihydro-1H-inden-2-yl)-4-ethylphenyl acetate]",74.1,153 to 154,–
"CCC(C)c1ccc(OC(C)=O)c(C2(OC(C)=O)C(=O)c3ccccc3C2=O)c1 (stereo not shown) [Example 13, 2-(2-Acetoxy-1,3-dioxo-2,3-dihydro-1H-inden-2-yl)-4-sec-butylphenyl acetate]",7.93,118 to 120,–
"CC(=O)Oc1ccc(C(C)(C)C)cc1C1(OC(C)=O)C(=O)c2ccccc2C1=O [Example 14, 2-(2-Acetoxy-1,3-dioxo-2,3-dihydro-1H-inden-2-yl)-4-tert-butylphenyl acetate]",8.26,195 to 196,–
"CC(=O)Oc1cc(C)c(C)c(C)c1C1(OC(C)=O)C(=O)c2ccccc2C1=O [Example 16, 2-(2-Acetoxy-1,3-dioxo-2,3-dihydro-1H-inden-2-yl)-3,4,5-trimethylphenyl acetate]",8.87,238 to 242,–
"CCC(C)(C)c1ccc(OC(C)=O)c(C2(OC(C)=O)C(=O)c3ccccc3C2=O)c1 [Example 17, 2-(2-Acetoxy-1,3-dioxo-2,3-dihydro-1H-inden-2-yl)-4-tert-pentylphenyl acetate]",9.3,146 to 151,–
"CC(=O)Oc1cc(C)cc(C2(OC(C)=O)C(=O)c3ccccc3C2=O)c1OC(C)=O [Example 18, Acetic acid 2-(2,3-diacetoxy-5-methyl-phenyl)-1,3-dioxo-indan-2-yl ester]",> 100,192 to 194,–
"COc1cc(C(C)C)ccc1C1(O)C(=O)c2cccc([N+](=O)[O-])c2C1=O (stereo not shown) [Example 38, 2-Hydroxy-2-(4-isopropyl-2-methoxyphenyl)-4-nitro-2H-inden-1,3-dione]",> 100,–,–
"COc1cc(C(C)C)ccc1C1(N=[N+]=[N-])C(=O)c2cccc([N+](=O)[O-])c2C1=O (stereo not shown) [Example 40, 2-Azido-2-(4-isopropyl-2-methoxyphenyl)-4-nitro-2H-inden-1,3-dione]",53.2,–,–
"COc1cc(C(C)C)ccc1C1(O)C(=O)c2cccc(N)c2C1=O (stereo not shown) [Example 41, 4-Amino-2-hydroxy-2-(4-isopropyl-2-methoxyphenyl)-2H-inden-1,3-dione]",–,219 to 220,–
"COc1cc(C(C)C)ccc1C1(O)C(=O)c2c(N)ccc(NC(C)=O)c2C1=O (stereo not shown) [Example 44, N-(7-Amino-2-hydroxy-2-(4-isopropyl-2-methoxyphenyl)-1,3-dioxo-2,3-dihydro-1H-inden-4-yl)acetamide]",> 117,–,–
"CC(=O)Oc1ccc(C)nc1C1(OC(C)=O)C(=O)c2ccccc2C1=O [Example 71, 2-(2-Acetoxy-1,3-dioxo-2,3-dihydro-1H-inden-2-yl)-6-methylpyridin-3-yl acetate]",> 100,–,–
"O=C1c2ccccc2C(=O)C1(O)c1ncc(Cl)cc1O [Example 73, 2-(5-Chloro-3-hydroxypyridin-2-yl)-2-hydroxy-1H-inden-1,3(2H)-dione]",> 100,–,–
"O=C1c2ccccc2C(=O)C1(O)c1cc2ncccc2cc1O [Example 75, 2-Hydroxy-2-(6-hydroxyquinolin-7-yl)-1H-inden-1, 3(2H)-dione]",> 100,–,–
"CC(=O)Nc1cc(C)c(C)cc1C1(O)C(=O)c2ccccc2C1=O [Example 86, N-(2-(2-Hydroxy-1,3-dioxo-2,3-dihydro-1H-inden-2-yl)-4,5-dimethylphenyl)acetamide]",–,–,4.63
"CCc1ccc(C2(O)C(=O)c3ccccc3C2=O)c(NC(C)=O)c1 [Example 88, N-(5-Ethyl-2-(2-hydroxy-1,3-dioxo-2,3-dihydro-1H-inden-2-yl)phenyl)acetamide]",–,–,4.49
"CCCC(=O)Nc1cc(C)c(C)cc1C1(O)C(=O)c2ccccc2C1=O [Example 89, N-(2-(2-Hydroxy-1,3-dioxo-2,3-dihydro-1H-inden-2-yl)-4,5-dimethylphenyl)butyramide]",–,–,10.7
"Cc1cc(NC(=O)C(C)C)c(C2(O)C(=O)c3ccccc3C2=O)cc1C [Example 90, N-(2-(2-Hydroxy-1,3-dioxo-2,3-dihydro-1H-inden-2-yl)-4,5-dimethylphenyl)isobutyramide]",–,–,38.3
"COc1cccc(C2C(=O)c3ccccc3C2=O)c1 [Example 104, 2-(3-Methoxyphenyl)-2H-inden-1,3-dione]",–,–,> 100
"CCOC(=O)Oc1cc(C(C)C)ccc1C1(OC(=O)OCC)C(=O)c2cccnc2C1=O (stereo not shown) [Example 105, ethyl (6-(2-((ethoxycarbonyl)oxy)-4-isopropylphenyl)-5,7-dioxo-6,7-dihydro-5H-cyclopenta[b]pyridin-6-yl)carbonate]",–,–,> 100
"COc1cc(NC(=O)C(C)C)c(C2(O)C(=O)c3cccc(N)c3C2=O)cc1OC (stereo not shown) [Example 107, N-[2-(4-Amino-2-hydroxy-1,3-dioxo-indan-2-yl)-4,5-dimethoxy-phenyl]-isobutyramide]",–,–,> 100
"COc1cc(NC(=O)C(C)C)c(C2(O)C(=O)c3cc(OC)c(OC)cc3C2=O)cc1OC [Example 108, N-[2-(2-Hydroxy-5,6-dimethoxy-1,3-dioxo-indan-2-yl)-4,5-dimethoxy-phenyl]-isobutyramide]",–,–,> 100
